Source: patent US20180371551A1, “MAT2A INHIBITORS FOR TREATING MTAP NULL CANCER” (Agios Pharmaceuticals, Inc., priority 2015, published 2018)

How the values were obtained:
[1] = system: PRMT5-dependent di-methylarginine marks in HCT116 isogenic pair; assay: Immunoblot of PRMT5-dependent di-methylarginine marks; assay type: cell-based; conditions: MTAP−/− and wt HCT116 cells, 5 days
Description: (§1) FIGS. 2A-F. PRMT5 is selectively essential in MTAP-null cells upon genetic ablation but not pharmacologic targeting. Immunoblot analysis of the indicated proteins in HCT116 MTAP^−/− and HCT116 MTAP wt cells stably expressing PRMT5 shRNA and p-LVX empty vector control (EV). (B) PRMT5 is selectively essential in MTAP-null cells in vitro. Percent growth of HCT116 wt and HCT116 MTAP^−/− cells upon PRMT5 knockdown (+dox), with or without PRMT5 wt or R368A mutant rescue, versus no knockdown (no dox) control in a 10-day soft agar colony growth assay. Colonies were stained with crystal violet and then quantified using Li-Cor (mean±SD, n=3). (C) Immunoblot analysis of the indicated proteins in HCT116 MTAP^−/− and HCT116 MTAP wt cells stably expressing PRMT5 shRNA and shRNA-resistant PRMT5 wt cDNA or PRMT5 R368A catalytically-dead mutant cDNA. (D) Immunoblot analysis of symmetric di-methylarginine marks in HCT116 MTAP^−/− and HCT116 MTAP wt cells stably expressing PRMT5 shRNA and p-LVX empty vector control (EV), or PRMT5 shRNA and shRNA-resistant PRMT5 wt cDNA or PRMT5 R368A catalytically-dead mutant cDNA. (E) Dose response analysis with EPZ015666 titrated from 20 μM top dose in HCT116 MTAP wt vs. HCT116 MTAP^−/− cells. Cells were treated with EPZ015666 for 5 days and their response to the compound is measured as fold growth of treated cells vs. untreated control (mean±SD, n=3). […]

[2] = system: HCT116 MTAP wt vs. HCT116 MTAP−/− cells; assay: EPZ015666 dose response, growth of HCT116 isogenic pair; assay type: cell-based; conditions: 5 days, titrated from 20 μM top dose
Description: as §1

PRMT5 = target: T1, PRMT5 (Homo sapiens, UniProt O14744); assay: N-methyltransferase in vitro activity assay; assay type: biochemical
T1 construct: purchased Eurofins CEREP Panlabs
Procedure: MTA has been reported to inhibit activity of protein methyltransferases (Enouf et al., 1979). To test this notion directly, we performed an in vitro biochemical screen assessing enzyme activity of 33 different N-methyltransferases following treatment with 10 μM and 100 μM MTA (FIG. 4A). […] Next, we analyzed the MTA Ki for PRMT5, PRMT4, and a diverse subset of methyltransferases (FIG. 4C). In vitro screening of methyltransferase inhibition by MTA, as well as SAM Km measurements, was conducted using a panel of methyltransferase assays at Eurofins CEREP Panlabs.

T1 sequence (O14744 whole entry): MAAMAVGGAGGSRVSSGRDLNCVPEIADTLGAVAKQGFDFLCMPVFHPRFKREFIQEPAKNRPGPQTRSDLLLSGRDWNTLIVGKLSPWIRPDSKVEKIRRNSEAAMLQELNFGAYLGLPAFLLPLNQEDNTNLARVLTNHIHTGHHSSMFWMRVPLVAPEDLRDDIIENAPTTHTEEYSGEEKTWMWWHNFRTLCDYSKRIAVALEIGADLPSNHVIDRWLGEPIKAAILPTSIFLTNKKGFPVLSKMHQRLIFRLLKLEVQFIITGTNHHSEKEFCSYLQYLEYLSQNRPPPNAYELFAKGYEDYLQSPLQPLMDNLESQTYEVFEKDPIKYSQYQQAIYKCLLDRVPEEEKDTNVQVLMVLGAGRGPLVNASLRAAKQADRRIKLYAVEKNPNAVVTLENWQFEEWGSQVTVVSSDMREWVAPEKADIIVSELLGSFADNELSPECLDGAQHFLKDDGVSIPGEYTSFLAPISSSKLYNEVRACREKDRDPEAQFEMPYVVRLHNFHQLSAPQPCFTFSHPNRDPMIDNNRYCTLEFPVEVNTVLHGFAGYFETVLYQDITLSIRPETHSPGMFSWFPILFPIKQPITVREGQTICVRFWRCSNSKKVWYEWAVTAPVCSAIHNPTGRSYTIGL
T1 sequence (Q9BQA1 whole entry partner): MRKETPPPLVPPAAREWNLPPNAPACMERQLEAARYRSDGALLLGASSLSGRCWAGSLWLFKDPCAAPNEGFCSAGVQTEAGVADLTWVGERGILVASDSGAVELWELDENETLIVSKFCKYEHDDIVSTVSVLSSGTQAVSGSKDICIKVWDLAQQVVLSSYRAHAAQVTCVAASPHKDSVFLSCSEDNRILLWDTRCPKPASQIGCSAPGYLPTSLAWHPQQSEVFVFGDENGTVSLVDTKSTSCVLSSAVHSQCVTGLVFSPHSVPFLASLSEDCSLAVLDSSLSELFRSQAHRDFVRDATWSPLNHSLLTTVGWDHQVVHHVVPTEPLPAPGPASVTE

IC50 (PRMT5; biochemical assay, read-out: PRMT5 IC50 for MTA)	Ki (PRMT5; read-out: MTA Ki for PRMT5)	Structure (SMILES)	PRMT5 activity inhibition (PRMT5-dependent di-methylarginine marks in total cell lysates) [1]	MTAP selectivity of growth inhibition [2]	MTAP selectivity of growth inhibition ([2]; listed as EPZ-015666)
		O=C(NC[C@H](O)CN1CCc2ccccc2C1)c1cc(NC2COC2)ncn1 [EPZ015666]	equal degree of PRMT5 activity inhibition	not selective for the MTAP-deficient genetic background	did not lead to selective growth inhibition in MTAP-null cells
3 µM	0.46 µM	CSC[C@H]1O[C@@H](n2cnc3c(N)ncnc32)[C@H](O)[C@@H]1O [MTA, methylthioadenosine]			
